According to PubChem BioAssay (NCI):
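Step 1: Grow cells in 96-well plates. Step 2: Expose to compound for 48 hours at 5 concentrations. Step 3: Interpolate endpoints linearly; if unreached, use highest concentration. TGI: total growth inhibition.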 *1 amine or outer side, *2 acyl side, *3 side chain or, on linkers, in order; H or OH if unused. Where a SMILES comes first, the peptide text is derived from it. Bridges are numbered along the chain shown (N, C = ends). Roman numbers before positions name the chains, in order. [ ]: non-standard residue; d: D form. Actinocin(9to1) = Cc1c2oc3c(C)ccc(C(=O)[*:1])c3nc-2c(C(=O)[*:2])c(N)c1=O; NMeH = CN[CH](Cc1c[nH]cn1)C(=O)O; Sar = CNCC(=O)O

Tests used:
Assay in all cases: DTP human tumour cell line panel, 48 h
[1] = system: SW-620 colon
[2] = system: OVCAR-3 ovarian
[3] = system: HL-60(TB) leukemia
[4] = system: MCF7 breast
[5] = system: MOLT-4 leukemia
[6] = system: UO-31 renal
[7] = system: SR leukemia
[8] = system: SF-268 CNS
[9] = system: HT29 colon
[10] = system: BT-549 breast
[11] = system: K-562 leukemia

Measured: TGI

Cc1c2oc3c(C)ccc(C(=O)NC4C(=O)NC(C(C)C)C(=O)N5CCCC5C(=O)N(C)CC(=O)N(C)C(Cc5cnc[nH]5)C(=O)OC4C)c3nc-2c(C(=O)NC2C(=O)NC(C(C)C)C(=O)N3CCCC3C(=O)N(C)CC(=O)N(C)C(Cc3cnc[nH]3)C(=O)OC2C)c(N)c1=O (stereo unspecified) (I: TVP[Sar][NMeH] / II: TVP[Sar][NMeH]; ester I:1-I:C, II:1-II:C; linker I:N-II:N via Actinocin(9to1); configuration not given here)
> 100 µM: all assays above
